Reference: ChEMBL document CHEMBL1201862, “PubChem BioAssay data set” (2004)
The source made the active and inactive calls.

Key:
[1] = molecular target: Induced myeloid leukemia cell differentiation protein Mcl-1 (Homo sapiens, UniProt Q07820); type: functional
[2] = molecular target: T1, Carboxy-terminal domain RNA polymerase II polypeptide A small phosphatase 1 (Homo sapiens, UniProt Q9GZU7); test: CTDSP1 inhibitors, concentration-response, biochemical, absorbance readout, ultra-high-throughput screen actives (AID 540297); type: functional
T1 sequence (Q9GZU7 whole entry): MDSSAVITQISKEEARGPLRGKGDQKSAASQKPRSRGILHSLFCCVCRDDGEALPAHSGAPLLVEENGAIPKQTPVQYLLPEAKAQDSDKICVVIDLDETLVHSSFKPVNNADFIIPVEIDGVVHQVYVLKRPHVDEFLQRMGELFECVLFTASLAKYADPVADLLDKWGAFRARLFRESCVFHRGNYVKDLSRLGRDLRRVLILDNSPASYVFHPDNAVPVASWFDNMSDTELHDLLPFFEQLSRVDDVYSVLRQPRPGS

[3] = molecular target: T2, Adenosylmethionine-8-amino-7-oxononanoate aminotransferase (Mycobacterium tuberculosis, UniProt P9WQ81); test: Mycobacterium tuberculosis BioA enzyme inhibitor Measured in Biochemical System Using Plate Reader - 2163-02_Inhibitor_Dose_CherryPick_Activity.; type: functional, Mycobacterium tuberculosis UT205
T2 sequence (P9WQ81 whole entry): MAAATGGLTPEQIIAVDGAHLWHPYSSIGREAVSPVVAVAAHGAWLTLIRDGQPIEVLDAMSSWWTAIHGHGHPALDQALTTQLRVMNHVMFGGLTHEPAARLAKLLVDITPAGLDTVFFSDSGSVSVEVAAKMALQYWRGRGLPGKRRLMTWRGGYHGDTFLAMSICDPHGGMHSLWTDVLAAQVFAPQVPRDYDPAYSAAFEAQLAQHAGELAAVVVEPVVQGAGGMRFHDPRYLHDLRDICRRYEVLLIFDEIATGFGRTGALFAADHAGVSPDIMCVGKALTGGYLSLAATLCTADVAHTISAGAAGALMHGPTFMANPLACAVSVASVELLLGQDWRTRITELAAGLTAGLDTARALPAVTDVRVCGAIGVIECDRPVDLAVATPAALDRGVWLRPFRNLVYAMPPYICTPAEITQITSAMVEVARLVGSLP

[4] = molecular target: Beta-galactosidase (Escherichia coli, UniProt Q8VNN2); test: Dose response counterscreen for EBI2 assay utilizing the enzyme, b-galactosidase.; type: functional
[5] = molecular target: Peroxisome proliferator-activated receptor gamma/Nuclear receptor coactivator 2 (Homo sapiens, UniProt P37231); type: functional;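 note: agonist potency for raising coactivator recruitment to the receptor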
[6] = molecular target: Peroxisome proliferator-activated receptor gamma/Nuclear receptor coactivator 1 (Homo sapiens, UniProt P37231); type: functional;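 note: agonist potency as compounds enhance coactivator SRC-1 recruitment to PPARgamma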
[7] = molecular target: Peroxisome proliferator-activated receptor gamma/Nuclear receptor coactivator 3 (Homo sapiens, UniProt P37231); type: functional;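 note: agonist potency for raising coactivator recruitment to the receptor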
[8] = molecular target: Large T antigen (Simian virus 40, UniProt P03070); type: functional, Betapolyomavirus macacae;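 note: Confirmatory-stage PubChem screen for compounds that inhibit SV40 T antigen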
[9] = molecular target: T3, Rac GTPase-activating protein 1 (Homo sapiens, UniProt Q9H0H5); test: blockers of MgcRacGAP-driven Rac1 GTP hydrolysis – biochemical, ADP Hunter fluorescence, primary and confirmatory, confirmation (AID 624330); type: functional
T3 sequence (Q9H0H5 whole entry): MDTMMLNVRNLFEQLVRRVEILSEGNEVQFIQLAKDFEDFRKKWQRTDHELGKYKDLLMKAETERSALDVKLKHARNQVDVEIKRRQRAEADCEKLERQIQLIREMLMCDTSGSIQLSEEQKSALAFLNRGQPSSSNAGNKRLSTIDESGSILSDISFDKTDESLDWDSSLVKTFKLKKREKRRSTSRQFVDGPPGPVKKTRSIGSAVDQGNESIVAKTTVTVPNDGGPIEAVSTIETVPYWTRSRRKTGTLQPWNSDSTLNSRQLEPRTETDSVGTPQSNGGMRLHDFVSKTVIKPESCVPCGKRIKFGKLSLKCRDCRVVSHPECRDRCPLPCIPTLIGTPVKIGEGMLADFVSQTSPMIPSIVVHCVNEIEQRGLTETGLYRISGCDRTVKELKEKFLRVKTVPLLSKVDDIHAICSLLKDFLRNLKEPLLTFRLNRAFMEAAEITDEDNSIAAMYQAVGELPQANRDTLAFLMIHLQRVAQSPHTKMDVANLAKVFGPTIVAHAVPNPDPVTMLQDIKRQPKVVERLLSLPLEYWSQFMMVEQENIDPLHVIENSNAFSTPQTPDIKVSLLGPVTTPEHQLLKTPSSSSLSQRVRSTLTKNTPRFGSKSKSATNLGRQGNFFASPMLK

[10] = molecular target: Cytochrome P450 2C9 (Homo sapiens, UniProt P11712)
[11] = molecular target: Paired box protein Pax-8 (Homo sapiens, UniProt Q06710); test: PAX8 transcriptional activity inhibition in RMG-I – RMG-I cells, luciferase, cherry-pick, dose response (AID 687027); type: functional, cell-based;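 note: luciferase reporter driven by Pax8 target thyroperoxidase promoter measured by SteadyGlo luminescence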
[12] = A2780 cell killing – plate reader, dry powder samples, cytotoxicity control, dose response (AID 743046); type: functional, cell-based
[13] = OVCAR-3 cell viability loss – plate reader, dry powder samples, PAX8 inhibitor project, dose response (AID 743044); type: functional, cell-based
[14] = IGROV1 cell killing – plate reader, dry powder samples, PAX8 inhibitor project, dose response (AID 743043); type: functional, cell-based; settings: IGROV-1
[15] = OVCAR8 cell viability loss – plate reader, dry powder samples, PAX8 project, dose response (AID 743197); type: functional, cell-based; settings: OVCAR-8
[16] = cells; type: functional, cell-based
[17] = cells; type: functional, cell-based; remark: listed apart in the source
[18] = molecular target: T4, Mannose-6-phosphate isomerase (Homo sapiens, UniProt P34949); test: MPI inhibition at elevated mannose 6-phosphate – biochemical, fluorescence intensity, high mannose 6-phosphate, primary screen (AID 1220)
T4 sequence (P34949 whole entry): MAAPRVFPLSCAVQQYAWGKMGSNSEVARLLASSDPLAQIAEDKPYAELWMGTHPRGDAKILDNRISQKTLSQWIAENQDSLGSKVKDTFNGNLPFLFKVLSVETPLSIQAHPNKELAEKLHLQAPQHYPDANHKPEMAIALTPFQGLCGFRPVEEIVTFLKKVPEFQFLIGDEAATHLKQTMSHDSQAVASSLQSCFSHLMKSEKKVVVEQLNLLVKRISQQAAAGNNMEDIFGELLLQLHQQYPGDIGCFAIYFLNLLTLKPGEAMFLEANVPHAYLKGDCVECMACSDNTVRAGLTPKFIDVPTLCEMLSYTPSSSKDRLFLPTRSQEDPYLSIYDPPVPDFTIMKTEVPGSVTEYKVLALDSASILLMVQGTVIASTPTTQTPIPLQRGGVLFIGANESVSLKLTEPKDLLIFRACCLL

Beta-galactosidase, sequence (Q8VNN2 whole entry): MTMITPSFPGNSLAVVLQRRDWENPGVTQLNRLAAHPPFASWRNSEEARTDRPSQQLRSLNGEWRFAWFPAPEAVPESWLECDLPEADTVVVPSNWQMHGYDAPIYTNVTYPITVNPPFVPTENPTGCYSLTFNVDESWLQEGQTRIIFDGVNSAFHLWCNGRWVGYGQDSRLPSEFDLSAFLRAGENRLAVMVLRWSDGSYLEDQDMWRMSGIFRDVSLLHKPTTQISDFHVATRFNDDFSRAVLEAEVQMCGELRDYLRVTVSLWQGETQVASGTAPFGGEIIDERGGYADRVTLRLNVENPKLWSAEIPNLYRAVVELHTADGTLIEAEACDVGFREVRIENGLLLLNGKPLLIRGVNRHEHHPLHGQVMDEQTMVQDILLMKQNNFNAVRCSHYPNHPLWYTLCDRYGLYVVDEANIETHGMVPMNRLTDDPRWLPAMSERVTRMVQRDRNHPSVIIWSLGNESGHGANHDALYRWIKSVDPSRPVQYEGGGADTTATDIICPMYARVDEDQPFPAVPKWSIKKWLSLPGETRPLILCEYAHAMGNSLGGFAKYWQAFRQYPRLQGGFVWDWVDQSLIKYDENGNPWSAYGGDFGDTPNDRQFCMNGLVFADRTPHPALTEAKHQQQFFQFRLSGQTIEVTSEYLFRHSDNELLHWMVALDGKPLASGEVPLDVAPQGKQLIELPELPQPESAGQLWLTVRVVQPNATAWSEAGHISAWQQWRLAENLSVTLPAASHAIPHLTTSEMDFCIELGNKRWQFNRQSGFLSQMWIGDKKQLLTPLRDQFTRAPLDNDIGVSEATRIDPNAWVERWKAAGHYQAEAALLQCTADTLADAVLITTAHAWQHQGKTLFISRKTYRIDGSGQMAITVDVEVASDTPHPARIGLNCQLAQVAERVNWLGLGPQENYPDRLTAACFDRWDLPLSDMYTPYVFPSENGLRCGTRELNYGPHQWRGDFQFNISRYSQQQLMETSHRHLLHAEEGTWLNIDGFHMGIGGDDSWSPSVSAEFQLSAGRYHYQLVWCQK
Peroxisome proliferator-activated receptor gamma/Nuclear receptor coactivator 2, sequence (P37231 whole entry): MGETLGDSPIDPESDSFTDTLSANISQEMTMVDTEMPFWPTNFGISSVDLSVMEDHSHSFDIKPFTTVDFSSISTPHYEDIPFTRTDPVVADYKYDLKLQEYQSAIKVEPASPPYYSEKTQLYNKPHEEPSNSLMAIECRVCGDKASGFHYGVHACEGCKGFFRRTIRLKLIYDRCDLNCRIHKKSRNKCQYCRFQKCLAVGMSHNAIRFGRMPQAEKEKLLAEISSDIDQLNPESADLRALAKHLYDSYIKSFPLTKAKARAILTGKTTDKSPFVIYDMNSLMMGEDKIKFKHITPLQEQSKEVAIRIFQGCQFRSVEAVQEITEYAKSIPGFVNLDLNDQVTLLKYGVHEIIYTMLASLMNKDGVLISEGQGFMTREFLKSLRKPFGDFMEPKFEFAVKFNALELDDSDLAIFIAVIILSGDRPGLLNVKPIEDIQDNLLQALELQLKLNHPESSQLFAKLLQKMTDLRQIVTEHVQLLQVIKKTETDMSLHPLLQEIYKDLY
Peroxisome proliferator-activated receptor gamma/Nuclear receptor coactivator 2, sequence (Q15596 whole entry, further chain): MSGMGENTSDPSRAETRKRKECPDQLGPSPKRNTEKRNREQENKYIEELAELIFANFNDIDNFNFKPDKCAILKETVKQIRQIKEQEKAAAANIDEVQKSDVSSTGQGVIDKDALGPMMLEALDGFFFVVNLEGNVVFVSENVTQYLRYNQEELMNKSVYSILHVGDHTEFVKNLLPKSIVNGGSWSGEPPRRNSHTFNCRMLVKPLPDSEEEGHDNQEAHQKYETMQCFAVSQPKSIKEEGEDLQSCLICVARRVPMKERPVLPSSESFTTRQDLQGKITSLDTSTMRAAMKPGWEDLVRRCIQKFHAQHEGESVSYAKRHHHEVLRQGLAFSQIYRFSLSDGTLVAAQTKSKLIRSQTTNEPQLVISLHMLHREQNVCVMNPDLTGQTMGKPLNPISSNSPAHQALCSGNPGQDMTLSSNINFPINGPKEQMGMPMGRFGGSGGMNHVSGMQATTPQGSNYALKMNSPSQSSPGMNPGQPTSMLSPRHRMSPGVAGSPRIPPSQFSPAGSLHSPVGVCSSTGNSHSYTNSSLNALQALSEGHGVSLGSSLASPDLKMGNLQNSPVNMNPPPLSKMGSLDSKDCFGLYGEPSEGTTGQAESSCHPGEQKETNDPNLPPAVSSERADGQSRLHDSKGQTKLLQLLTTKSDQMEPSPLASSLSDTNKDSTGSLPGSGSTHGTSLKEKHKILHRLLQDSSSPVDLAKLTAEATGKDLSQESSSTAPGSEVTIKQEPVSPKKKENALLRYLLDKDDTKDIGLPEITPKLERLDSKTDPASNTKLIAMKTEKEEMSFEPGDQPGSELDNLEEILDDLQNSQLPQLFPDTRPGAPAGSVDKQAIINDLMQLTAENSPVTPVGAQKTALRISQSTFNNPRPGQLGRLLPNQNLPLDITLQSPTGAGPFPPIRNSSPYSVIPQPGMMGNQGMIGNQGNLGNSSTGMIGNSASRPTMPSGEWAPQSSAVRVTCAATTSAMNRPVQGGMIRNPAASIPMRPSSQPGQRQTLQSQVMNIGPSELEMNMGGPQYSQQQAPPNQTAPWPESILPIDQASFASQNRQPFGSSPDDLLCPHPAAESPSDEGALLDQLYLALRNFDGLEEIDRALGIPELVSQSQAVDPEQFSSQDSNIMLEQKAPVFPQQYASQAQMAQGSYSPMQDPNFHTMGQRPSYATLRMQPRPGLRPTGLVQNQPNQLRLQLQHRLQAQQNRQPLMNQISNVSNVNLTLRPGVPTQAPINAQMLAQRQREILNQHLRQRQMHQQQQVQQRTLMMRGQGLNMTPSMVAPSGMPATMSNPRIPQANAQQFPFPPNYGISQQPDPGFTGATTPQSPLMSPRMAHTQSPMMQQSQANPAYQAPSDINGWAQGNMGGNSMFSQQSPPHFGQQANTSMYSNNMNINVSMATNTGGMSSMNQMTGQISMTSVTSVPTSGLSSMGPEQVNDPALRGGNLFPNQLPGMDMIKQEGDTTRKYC
Peroxisome proliferator-activated receptor gamma/Nuclear receptor coactivator 1, sequence (P37231 whole entry): as the sequence (P37231 whole entry) above
Peroxisome proliferator-activated receptor gamma/Nuclear receptor coactivator 1, sequence (Q15788 whole entry, further chain): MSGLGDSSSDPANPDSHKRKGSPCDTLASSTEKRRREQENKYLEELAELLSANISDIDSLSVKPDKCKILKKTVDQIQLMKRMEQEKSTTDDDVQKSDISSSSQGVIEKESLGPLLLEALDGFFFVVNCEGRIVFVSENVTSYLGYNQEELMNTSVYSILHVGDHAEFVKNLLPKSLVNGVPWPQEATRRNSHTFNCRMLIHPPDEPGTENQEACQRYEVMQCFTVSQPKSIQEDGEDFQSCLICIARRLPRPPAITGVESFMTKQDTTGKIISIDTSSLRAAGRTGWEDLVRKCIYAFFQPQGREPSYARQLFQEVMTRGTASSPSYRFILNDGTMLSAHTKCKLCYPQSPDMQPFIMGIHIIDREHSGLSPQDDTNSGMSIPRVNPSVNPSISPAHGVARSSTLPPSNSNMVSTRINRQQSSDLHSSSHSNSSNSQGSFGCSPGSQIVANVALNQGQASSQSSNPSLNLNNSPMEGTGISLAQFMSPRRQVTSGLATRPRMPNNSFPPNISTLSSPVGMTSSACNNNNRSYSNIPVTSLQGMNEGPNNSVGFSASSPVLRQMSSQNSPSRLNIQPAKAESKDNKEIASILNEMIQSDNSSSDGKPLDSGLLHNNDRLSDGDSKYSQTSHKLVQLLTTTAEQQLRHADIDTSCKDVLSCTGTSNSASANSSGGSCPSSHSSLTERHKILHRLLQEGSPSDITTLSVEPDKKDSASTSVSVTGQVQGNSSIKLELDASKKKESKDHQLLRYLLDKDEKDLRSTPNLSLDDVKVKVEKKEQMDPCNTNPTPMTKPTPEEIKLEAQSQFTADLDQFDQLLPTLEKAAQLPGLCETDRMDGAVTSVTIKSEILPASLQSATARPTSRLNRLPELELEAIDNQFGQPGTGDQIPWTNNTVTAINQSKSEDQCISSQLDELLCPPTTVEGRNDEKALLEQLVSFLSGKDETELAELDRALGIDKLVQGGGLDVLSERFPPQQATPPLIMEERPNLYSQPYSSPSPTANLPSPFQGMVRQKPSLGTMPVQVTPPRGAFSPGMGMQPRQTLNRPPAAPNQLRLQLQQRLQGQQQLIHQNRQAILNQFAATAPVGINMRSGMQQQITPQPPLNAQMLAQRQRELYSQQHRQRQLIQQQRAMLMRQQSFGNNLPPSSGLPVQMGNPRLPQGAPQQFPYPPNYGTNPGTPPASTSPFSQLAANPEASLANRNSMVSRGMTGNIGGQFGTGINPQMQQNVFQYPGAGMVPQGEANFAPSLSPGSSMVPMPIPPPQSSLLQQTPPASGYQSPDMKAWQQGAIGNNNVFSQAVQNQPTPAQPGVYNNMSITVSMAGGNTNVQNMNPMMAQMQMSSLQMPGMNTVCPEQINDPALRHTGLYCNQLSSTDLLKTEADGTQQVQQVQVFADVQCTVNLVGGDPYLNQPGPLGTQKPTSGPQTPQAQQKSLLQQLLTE

With NC(=S)n1[nH]c(-c2ccc([N+](=O)[O-])cc2)c(/N=N/c2ccccc2[N+](=O)[O-])c1=O the IC50 [1] was 23.2 µM (active) and the IC50 [2] was 1.46 µM (active).
For COc1cc(-c2nc3ccccc3nc2-c2ccc(O)c(OC)c2)ccc1O, the AC50 [3] was 3.99 µM (active).
With COC(=O)c1c(C(=O)OC)c(-c2cccc(F)c2)n2c1C[S+]([O-])C2 (stereo not drawn) the AC50 [3] was 0.659 µM (active).
With O=C(/C=C/c1ccc(Cl)cc1)N1CCN(CCN2C(=O)c3cccc4cccc(c34)C2=O)CC1 the IC50 [4] was > 80 µM (inactive).
For O=C(N/N=C/c1ccc(O)cc1)c1csc2ccccc12, the EC50 [5] was > 79.4 µM (not active), the EC50 [6] was > 79.4 µM (not active) and the EC50 [7] was > 79.4 µM (not active). For the same compound, the IC50 [8] was 13.3 µM (active), the IC50 [9] was 42.3 µM (active) and the AC50 [10] was “inconclusive”.
For C[C@@H]1CN([C@H](C)CO)C(=O)c2cc(NS(=O)(=O)c3cccs3)ccc2O[C@@H](C)CCCCO[C@@H]1CN(C)Cc1ccc(Cl)c(Cl)c1, the AC50 [11] was 4.91 µM (active), the AC50 [12] was 27.8 µM (active) and the AC50 [13] was 16.9 µM (active). For the same compound, the AC50 [14] was 26.5 µM (active) and the AC50 [15] was 20.5 µM (active).
In the case of CN(CP(=O)(O)CN(C)S(C)(=O)=O)S(C)(=O)=O, the EC50 [5] is reported as > 79.4 µM (not active), the EC50 [6] is reported as > 79.4 µM (not active) and the EC50 [7] is reported as > 79.4 µM (not active).
For CCOC(=O)[C@]12CCC=C1N(CCC1=CCCCC1)C(=O)[C@H](CC(=O)NCCc1ccccc1OC)C2, the IC50 [16] was > 29.9 µM (inactive) and the EC50 [17] was > 29.9 µM (inactive).
With O=[N+]([O-])c1ccc(NN=Cc2cc(Br)ccc2O)nc1 the IC50 [4] was 39.2 µM (active).
With CCN(CC)c1ccc(NC(=S)Nc2ccc(F)cc2)cc1 the IC50 [18] was > 50 µM (not active).
